Measured values: patent US20170304388A1, “NEW INDICATION OF CARDIOVASCULAR DRUGS FOR PREPARATION OF CANCER INHIBITION PHARMACEUTICAL COMPOSITION” (LAUNX BIOMEDICAL CO., LTD., priority 2014, published 2017)

How the values were obtained:
Type in all cases: cell-based
[1] = system: PC3 (Prostate Adenocarcinoma); test: Cell viability analysis (WST-1), PC3; details: Table 4, repeated experiments, drug 10 μM; for viability at 10 µM: 72 h, WST-1, read-out: survival rate (viability) of cancer cells, PC-3
[2] = system: TSGH-8301 (Urinary Bladder Carcinoma); test: Cell viability analysis (WST-1), TSGH-8301; details: Table 4, repeated experiments, drug 10 μM; for viability at 10 µM: 72 h, WST-1, read-out: survival rate (viability) of cancer cells, TSGH-8301
[3] = system: TOV-21G; test: Cell viability analysis (WST-1), TOV-21G; details: Table 4, repeated experiments, drug 10 μM; for viability at 10 µM: Homo sapiens, TOV21G, 72 h, read-out: survival rate (viability) of cancer cells, TOV-21G
Outline: (§1)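 Absorbance at OD450 nm after WST-1 incubation gave the survival rate. Cells (3000/well) were exposed to drug at 10 μM for 72 hours, then given WST-1 diluted 9:1 in medium for 30 to 90 minutes at 37° C.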

[4] = system: HepG2 (Hepatocellular Carcinoma); test: Cell viability analysis (WST-1), HepG2; details: Table 4, repeated experiments, drug 10 μM; for viability at 10 µM: Homo sapiens, HepG2, 72 h, WST-1, read-out: survival rate (viability) of cancer cells, HepG2
[5] = system: cancer cell lines; test: Growth inhibitory effects on the panel of cancer cell lines; details: drug 10 μM, 72 hours, WST-1
From the text: Subculture the different types of cancer cells.
For cell viability analysis, the cardiovascular drugs include peripheral vasodilator reaming enhancer, angiotensin converting agent inhibitor, hypotension and shock therapeutic agent, diuretic, antiarrhythmic agent, antiarralciton drug, antihypertensive agent, anticoagulant thrombolytic agent, cardiac tonic, intravenous (hemorrhoids) therapeutic agent, are used to test the inhibition effect of cancer cell.

[6] = system: HCT116 (Colorectal Carcinoma); test: Cell viability analysis (WST-1), HCT116; details: Table 4, repeated experiments, drug 10 μM; for viability at 10 µM: Homo sapiens, HCT-116, 72 h, WST-1, read-out: survival rate (viability) of cancer cells, HCT116
[7] = system: C-33A; test: Cell viability analysis (WST-1), C-33A; details: Table 4, repeated experiments, drug 10 μM; for viability at 10 µM: Homo sapiens, C-33-A, 72 h, read-out: survival rate (viability) of cancer cells, C-33A
Outline: as §1

[8] = system: MCF7 (Mammary Gland, Adenocarcinoma); test: Cell viability analysis (WST-1), MCF7; details: Table 4, repeated experiments, drug 10 μM; for viability at 10 µM: Homo sapiens, MCF7, 72 h, WST-1, read-out: survival rate (viability) of cancer cells, MCF-7
[9] = system: MDA-MB231; test: Cell viability analysis (WST-1), MDA-MB231; details: Table 4, repeated experiments, drug 10 μM; for viability at 10 µM: Homo sapiens, MDA-MB-231, 72 h, read-out: survival rate (viability) of cancer cells, MDA-MB231
[10] = system: A549 (Lung Adenocarcinoma); test: Cell viability analysis (WST-1), A549; details: Table 4, repeated experiments, drug 10 μM; for viability at 10 µM: Homo sapiens, A549, 72 h, WST-1, read-out: survival rate (viability) of cancer cells, A549
[11] = system: 786-O; test: Cell viability analysis (WST-1), 786-O; details: Table 4, repeated experiments, drug 10 μM; for viability at 10 µM: Homo sapiens, 786-0, 72 h, read-out: survival rate (viability) of cancer cells, 786-O
Outline: as §1

[12] = system: AGS (Gastric Adenocarcinoma); test: Cell viability analysis (WST-1), AGS; details: Table 4, repeated experiments, drug 10 μM; for viability at 10 µM: 72 h, WST-1, read-out: survival rate (viability) of cancer cells, AGS
[13] = system: BCC; test: Cell viability analysis (WST-1), BCC; details: Table 4, repeated experiments, drug 10 μM; for viability at 10 µM: BCC, 72 h, read-out: survival rate (viability) of cancer cells, BCC
[14] = system: BxPC-3; test: Cell viability analysis (WST-1), BxPC-3; details: Table 4, repeated experiments, drug 10 μM; for viability at 10 µM: Homo sapiens, BXPC-3, 72 h, read-out: survival rate (viability) of cancer cells, BxPC-3
Outline: as §1

[15] = system: HeLa (Cervix Adenocarcinoma); test: Cell viability analysis (WST-1), HeLa; details: Table 4, repeated experiments, drug 10 μM; for viability at 10 µM: Homo sapiens, HeLa, 72 h, WST-1, read-out: survival rate (viability) of cancer cells, HeLa
[16] = system: H1650 (Lung Adenocarcinoma); test: Cell viability analysis (WST-1), H1650; details: Table 4, repeated experiments, drug 10 μM; for viability at 10 µM: Homo sapiens, NCI-H1650, 72 h, WST-1, read-out: survival rate (viability) of cancer cells, H1650
[17] = system: MKN-45 (Gastric Adenocarcinoma); test: Cell viability analysis (WST-1), MKN-45; details: Table 4, repeated experiments, drug 10 μM; for viability at 10 µM: Homo sapiens, MKN-45, 72 h, WST-1, read-out: survival rate (viability) of cancer cells, MKN-45
[18] = system: A375 (Amelanotic Melanoma); test: Cell viability analysis (WST-1), A375; details: Table 4, repeated experiments, drug 10 μM; for viability at 10 µM: Homo sapiens, A-375, 72 h, WST-1, read-out: survival rate (viability) of cancer cells, A375
[19] = system: SAS; test: Cell viability analysis (WST-1), SAS; details: Table 4, repeated experiments, drug 10 μM; for viability at 10 µM: 72 h, read-out: survival rate (viability) of cancer cells, SAS
Outline: as §1

[20] = system: U2OS; test: Cell viability analysis (WST-1), U2OS; details: Table 4, repeated experiments, drug 10 μM; for viability at 10 µM: Homo sapiens, U2OS, 72 h, read-out: survival rate (viability) of cancer cells, U2OS
Outline: as §1

[21] = system: LoVo (Colorectal Adenocarcinoma); test: Cell viability analysis (WST-1), LoVo; details: Table 4, repeated experiments, drug 10 μM; for viability at 10 µM: Homo sapiens, LoVo, 72 h, WST-1, read-out: survival rate (viability) of cancer cells, LoVo
[22] = system: Hep3B; test: Cell viability analysis (WST-1), Hep3B; details: Table 4, repeated experiments, drug 10 μM; for viability at 10 µM: Homo sapiens, Hep3B, 72 h, read-out: survival rate (viability) of cancer cells, Hep3B
Outline: as §1

[23] = system: AsPC-1; test: Cell viability analysis (WST-1), AsPC-1; details: Table 4, repeated experiments, drug 10 μM; for viability at 10 µM: Homo sapiens, ASPC1, 72 h, read-out: survival rate (viability) of cancer cells, AsPC-1
Outline: as §1

[24] = system: T24; test: Cell viability analysis (WST-1), T24; details: Table 4, repeated experiments, drug 10 μM; for viability at 10 µM: Homo sapiens, T-24, 72 h, read-out: survival rate (viability) of cancer cells, T24
Outline: as §1

[25] = system: NIH-OVCAR-3; test: Cell viability analysis (WST-1), NIH-OVCAR-3; details: Table 4, repeated experiments, drug 10 μM; for viability at 10 µM: Homo sapiens, OVCAR-3, 72 h, read-out: survival rate (viability) of cancer cells, NIH-OVCAR-3
Outline: as §1

SMILES: CC(C)c1c(C(=O)Nc2ccccc2)c(-c2ccccc2)c(-c2ccc(F)cc2)n1CC[C@@H](O)C[C@@H](O)CC(=O)[O-].CC(C)c1c(C(=O)Nc2ccccc2)c(-c2ccccc2)c(-c2ccc(F)cc2)n1CC[C@@H](O)C[C@@H](O)CC(=O)[O-].[Ca+2] [Atorvastatin calcium (Lipitor), Atorvastatin calcium]
- survival rate (viability) of cancer cells, PC-3 ([1]; 72 hours, WST-1): 56.4832
- survival rate (viability) of cancer cells, TSGH-8301 ([2]; 72 hours, WST-1): 70.59
- survival rate (viability) of cancer cells, TOV-21G ([3]; 72 hours): 34.04
- survival rate (viability) of cancer cells, HepG2 ([4]; 72 hours, WST-1): 95.92
- inhibition effect on different cancer cell lines (in words) [5]: significant inhibition effect
- survival rate (viability) of cancer cells, HCT116 ([6]; 72 hours, WST-1): 82.55
- survival rate (viability) of cancer cells, C-33A ([7]; 72 hours): 96.95
- survival rate (viability) of cancer cells, MCF-7 ([8]; 72 hours, WST-1): 79.08
- survival rate (viability) of cancer cells, MDA-MB231 ([9]; 72 hours): 47.84
- survival rate (viability) of cancer cells, A549 ([10]; 72 hours, WST-1): 90.1462
- survival rate (viability) of cancer cells, 786-O ([11]; 72 hours): 32.54
- survival rate (viability) of cancer cells, AGS ([12]; 72 hours, WST-1): 31.48
- survival rate (viability) of cancer cells, BCC ([13]; 72 hours): 41.49
- survival rate (viability) of cancer cells, BxPC-3 ([14]; 72 hours): 81.03
- survival rate (viability) of cancer cells, HeLa ([15]; 72 hours, WST-1): 78.64
- survival rate (viability) of cancer cells, H1650 ([16]; 72 hours, WST-1): 69.55
- survival rate (viability) of cancer cells, MKN-45 ([17]; 72 hours, WST-1): 84.18
- survival rate (viability) of cancer cells, A375 ([18]; 72 hours, WST-1): 23.01
- survival rate (viability) of cancer cells, SAS ([19]; 72 hours): 76.29
- survival rate (viability) of cancer cells, U2OS ([20]; 72 hours): 86.25
- survival rate (viability) of cancer cells, LoVo ([21]; 72 hours, WST-1): 103.0307
- survival rate (viability) of cancer cells, Hep3B ([22]; 72 hours): 91.86
- survival rate (viability) of cancer cells, AsPC-1 ([23]; 72 hours): 81.1
- survival rate (viability) of cancer cells, T24 ([24]; 72 hours): 78.47
- survival rate (viability) of cancer cells, NIH-OVCAR-3 ([25]; 72 hours): 98.3

SMILES: CCC[C@H](N[C@@H](C)C(=O)N1[C@H](C(=O)O)C[C@@H]2CCCC[C@@H]21)C(=O)OCC [Perindopril Erbumine (Aceon), Perindopril Erbumine]
- viability at 10 µM [1]: 81.1%
- viability at 10 µM [2]: 105%
- viability at 10 µM [3]: 71.2%
- viability at 10 µM [4]: 99.4%
- inhibition effect on different cancer cell lines (in words) [5]: significant inhibition effect
- viability at 10 µM [6]: 65%
- viability at 10 µM [7]: 90.9%
- viability at 10 µM [8]: 75.6%
- viability at 10 µM [9]: 63.8%
- viability at 10 µM [10]: 71.9%
- viability at 10 µM [11]: 86.2%
- viability at 10 µM [12]: 87.1%
- viability at 10 µM [13]: 58.7%
- viability at 10 µM [14]: 50%
- viability at 10 µM [15]: 66.7%
- viability at 10 µM [16]: 78.6%
- viability at 10 µM [17]: 73.8%
- viability at 10 µM [18]: 83.2%
- viability at 10 µM [19]: 52.5%
- viability at 10 µM [20]: 74%
- viability at 10 µM [21]: 83.5%
- viability at 10 µM [22]: 99.5%
- viability at 10 µM [23]: 64.2%
- viability at 10 µM [24]: 87.9%
- viability at 10 µM [25]: 79.6%

SMILES: CC(C)N(CCC(C(N)=O)(c1ccccc1)c1ccccn1)C(C)C (stereo not drawn) [Disopyramide Phosphate]
- viability at 10 µM [1]: 103%
- viability at 10 µM [2]: 115%
- viability at 10 µM [3]: 94.3%
- viability at 10 µM [4]: 109%
- inhibition effect on different cancer cell lines (in words) [5]: significant inhibition effect
- viability at 10 µM [6]: 94%
- viability at 10 µM [7]: 98.5%
- viability at 10 µM [8]: 107%
- viability at 10 µM [9]: 98.8%
- viability at 10 µM [10]: 99.4%
- viability at 10 µM [11]: 102%
- viability at 10 µM [12]: 95.9%
- viability at 10 µM [13]: 110%
- viability at 10 µM [14]: 69.9%
- viability at 10 µM [15]: 103%
- viability at 10 µM [16]: 90.5%
- viability at 10 µM [17]: 111%
- viability at 10 µM [18]: 114%
- viability at 10 µM [19]: 96.9%
- viability at 10 µM [20]: 98.7%
- viability at 10 µM [21]: 105%
- viability at 10 µM [22]: 113%
- viability at 10 µM [23]: 77.2%
- viability at 10 µM [24]: 87.6%
- viability at 10 µM [25]: 103%
